Data taken from PubChem BioAssay (NCI).
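How tested: cells in 96-well plates exposed to compound for 48 hours at five concentrations. Here, GI50 denotes the concentration required for 50% inhibition of growth. TGI is the concentration that stops growth completely.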

Key:
Assay in all cases: NCI anticancer screen, dose series, 48 h
K-562 leukemia = system: K-562 leukemia
SK-MEL-5 melanoma = system: SK-MEL-5 melanoma
SNB-19 CNS = system: SNB-19 CNS
UO-31 renal = system: UO-31 renal
MOLT-4 leukemia = system: MOLT-4 leukemia
OVCAR-8 ovarian = system: OVCAR-8 ovarian
OVCAR-5 ovarian = system: OVCAR-5 ovarian
U251 CNS = system: U251 CNS
NCI-H522 lung = system: NCI-H522 lung
MDA-MB-435 = system: MDA-MB-435
SF-295 CNS = system: SF-295 CNS
EKVX NSCLC = system: EKVX NSCLC
HOP-62 NSCLC = system: HOP-62 NSCLC
PC-3 prostate = system: PC-3 prostate
BT-549 breast = system: BT-549 breast
786-0 renal = system: 786-0 renal
SW-620 colon = system: SW-620 colon
UACC-257 melanoma = system: UACC-257 melanoma
ACHN renal = system: ACHN renal
IGROV1 ovarian = system: IGROV1 ovarian
HS 578T breast = system: HS 578T breast
SF-268 CNS = system: SF-268 CNS
OVCAR-3 ovarian = system: OVCAR-3 ovarian
SK-OV-3 ovarian = system: SK-OV-3 ovarian
NCI-H226 lung = system: NCI-H226 lung
KM12 colon = system: KM12 colon
HCT-15 colon = system: HCT-15 colon
NCI/ADR-RES ovarian = system: NCI/ADR-RES ovarian
MALME-3M melanoma = system: MALME-3M melanoma
MCF7 breast = system: MCF7 breast
NCI-H460 lung = system: NCI-H460 lung
RXF 393 renal = system: RXF 393 renal
SK-MEL-2 melanoma = system: SK-MEL-2 melanoma
A549 NSCLC = system: A549 NSCLC
UACC-62 melanoma = system: UACC-62 melanoma
HT29 colon = system: HT29 colon
CAKI-1 renal = system: CAKI-1 renal
HCC-2998 colon = system: HCC-2998 colon
SF-539 CNS = system: SF-539 CNS
DU-145 prostate = system: DU-145 prostate
SNB-75 CNS = system: SNB-75 CNS
SR leukemia = system: SR leukemia
TK-10 renal = system: TK-10 renal
SK-MEL-28 melanoma = system: SK-MEL-28 melanoma
NCI-H23 lung = system: NCI-H23 lung
SN12C renal = system: SN12C renal
M14 melanoma = system: M14 melanoma
MDA-N = system: MDA-N
RPMI-8226 leukemia = system: RPMI-8226 leukemia
T-47D breast = system: T-47D breast
OVCAR-4 ovarian = system: OVCAR-4 ovarian
HL-60(TB) leukemia = system: HL-60(TB) leukemia
HOP-92 NSCLC = system: HOP-92 NSCLC
CCRF-CEM leukemia = system: CCRF-CEM leukemia
HCT-116 colon = system: HCT-116 colon
LOX IMVI melanoma = system: LOX IMVI melanoma
MDA-MB-231 breast = system: MDA-MB-231 breast
COLO 205 colon = system: COLO 205 colon
A498 renal = system: A498 renal

O=C(CC(NC(=O)OCc1ccccc1)C(=O)NC1Cc2ccccc2C1=O)OCc1ccccc1 (stereo not given)
TGI (K-562 leukemia): > 100000 nM
TGI (SK-MEL-5 melanoma): > 100000 nM
TGI (SNB-19 CNS): > 100000 nM
TGI (UO-31 renal): > 100000 nM
TGI (MOLT-4 leukemia): > 100000 nM
TGI (OVCAR-8 ovarian): > 100000 nM
TGI (OVCAR-5 ovarian): > 100000 nM
TGI (U251 CNS): > 100000 nM
TGI (NCI-H522 lung): > 100000 nM
TGI (MDA-MB-435): > 100000 nM
TGI (SF-295 CNS): > 100000 nM
TGI (EKVX NSCLC): > 100000 nM
TGI (HOP-62 NSCLC): > 100000 nM
TGI (PC-3 prostate): > 100000 nM
TGI (BT-549 breast): > 100000 nM
TGI (786-0 renal): > 100000 nM
TGI (SW-620 colon): > 100000 nM
TGI (UACC-257 melanoma): > 100000 nM
TGI (ACHN renal): > 100000 nM
TGI (IGROV1 ovarian): > 100000 nM
TGI (HS 578T breast): > 100000 nM
TGI (SF-268 CNS): > 100000 nM
TGI (OVCAR-3 ovarian): > 100000 nM
TGI (SK-OV-3 ovarian): > 100000 nM
TGI (NCI-H226 lung): > 100000 nM
TGI (KM12 colon): > 100000 nM
TGI (HCT-15 colon): > 100000 nM
TGI (NCI/ADR-RES ovarian): > 100000 nM
TGI (MALME-3M melanoma): > 100000 nM
TGI (MCF7 breast): > 100000 nM
TGI (NCI-H460 lung): > 100000 nM
TGI (RXF 393 renal): > 100000 nM
TGI (SK-MEL-2 melanoma): > 100000 nM
TGI (A549 NSCLC): > 100000 nM
TGI (UACC-62 melanoma): > 100000 nM
TGI (HT29 colon): > 100000 nM
TGI (CAKI-1 renal): > 100000 nM
TGI (HCC-2998 colon): > 100000 nM
TGI (SF-539 CNS): > 100000 nM
TGI (DU-145 prostate): > 100000 nM
TGI (SNB-75 CNS): > 100000 nM
TGI (SR leukemia): > 100000 nM
TGI (TK-10 renal): > 100000 nM
TGI (SK-MEL-28 melanoma): > 100000 nM
TGI (NCI-H23 lung): > 100000 nM
TGI (SN12C renal): > 100000 nM
TGI (M14 melanoma): > 100000 nM
TGI (MDA-N): > 100000 nM
TGI (RPMI-8226 leukemia): > 100000 nM

ClC1=C(Cl)C(Cl)(C2(Cl)C(Cl)=C(Cl)C(Cl)=C2Cl)C(Cl)=C1Cl
GI50 (K-562 leukemia): 226 nM
TGI (K-562 leukemia): > 100000 nM
GI50 (SK-MEL-5 melanoma): 1270 nM
TGI (SK-MEL-5 melanoma): 2730 nM
GI50 (SNB-19 CNS): 1790 nM
TGI (SNB-19 CNS): 3330 nM
GI50 (UO-31 renal): 170 nM
TGI (UO-31 renal): 445 nM
GI50 (MOLT-4 leukemia): 242 nM
TGI (MOLT-4 leukemia): 2310 nM
GI50 (OVCAR-8 ovarian): 365 nM
TGI (OVCAR-8 ovarian): 3790 nM
GI50 (OVCAR-5 ovarian): 1220 nM
TGI (OVCAR-5 ovarian): 2760 nM
GI50 (U251 CNS): 1510 nM
TGI (U251 CNS): 6910 nM
GI50 (T-47D breast): 184 nM
TGI (T-47D breast): 539 nM
GI50 (NCI-H522 lung): 160 nM
TGI (NCI-H522 lung): 341 nM
GI50 (MDA-MB-435): 670 nM
TGI (MDA-MB-435): 2130 nM
GI50 (OVCAR-4 ovarian): 200 nM
TGI (OVCAR-4 ovarian): 509 nM
GI50 (SF-295 CNS): 2050 nM
TGI (SF-295 CNS): 4140 nM
GI50 (EKVX NSCLC): 1520 nM
TGI (EKVX NSCLC): 3880 nM
GI50 (HOP-62 NSCLC): 2210 nM
TGI (HOP-62 NSCLC): 4560 nM
GI50 (PC-3 prostate): 975 nM
TGI (PC-3 prostate): 2950 nM
GI50 (BT-549 breast): 1680 nM
TGI (BT-549 breast): 3670 nM
GI50 (786-0 renal): 242 nM
TGI (786-0 renal): 746 nM
GI50 (HL-60(TB) leukemia): 206 nM
TGI (HL-60(TB) leukemia): 549 nM
GI50 (HOP-92 NSCLC): 175 nM
TGI (HOP-92 NSCLC): 437 nM
GI50 (SW-620 colon): 190 nM
TGI (SW-620 colon): 391 nM
GI50 (UACC-257 melanoma): 543 nM
TGI (UACC-257 melanoma): 1840 nM
GI50 (ACHN renal): 165 nM
TGI (ACHN renal): 312 nM
GI50 (IGROV1 ovarian): 1480 nM
TGI (IGROV1 ovarian): 3160 nM
GI50 (HS 578T breast): 2220 nM
TGI (HS 578T breast): 6430 nM
GI50 (CCRF-CEM leukemia): 166 nM
TGI (CCRF-CEM leukemia): 496 nM
GI50 (SF-268 CNS): 1280 nM
TGI (SF-268 CNS): 4050 nM
GI50 (OVCAR-3 ovarian): 199 nM
TGI (OVCAR-3 ovarian): 417 nM
GI50 (SK-OV-3 ovarian): 2260 nM
TGI (SK-OV-3 ovarian): 4540 nM
GI50 (NCI-H226 lung): 296 nM
TGI (NCI-H226 lung): 2740 nM
GI50 (KM12 colon): 2040 nM
TGI (KM12 colon): 4320 nM
GI50 (HCT-15 colon): 214 nM
TGI (HCT-15 colon): 552 nM
GI50 (NCI/ADR-RES ovarian): 976 nM
TGI (NCI/ADR-RES ovarian): 5610 nM
GI50 (MALME-3M melanoma): 188 nM
TGI (MALME-3M melanoma): 446 nM
GI50 (MCF7 breast): 241 nM
TGI (MCF7 breast): 921 nM
GI50 (NCI-H460 lung): 1890 nM
TGI (NCI-H460 lung): 3800 nM
GI50 (RXF 393 renal): 186 nM
TGI (RXF 393 renal): 396 nM
GI50 (HCT-116 colon): 189 nM
TGI (HCT-116 colon): 439 nM
GI50 (SK-MEL-2 melanoma): 1290 nM
TGI (SK-MEL-2 melanoma): 3140 nM
GI50 (A549 NSCLC): 1870 nM
TGI (A549 NSCLC): 4160 nM
GI50 (UACC-62 melanoma): 430 nM
TGI (UACC-62 melanoma): 1610 nM
GI50 (HT29 colon): 242 nM
TGI (HT29 colon): 617 nM
GI50 (CAKI-1 renal): 265 nM
TGI (CAKI-1 renal): 832 nM
GI50 (HCC-2998 colon): 2130 nM
TGI (HCC-2998 colon): 4000 nM
GI50 (SF-539 CNS): 1740 nM
TGI (SF-539 CNS): 3660 nM
GI50 (LOX IMVI melanoma): 206 nM
TGI (LOX IMVI melanoma): 487 nM
GI50 (DU-145 prostate): 633 nM
TGI (DU-145 prostate): 1990 nM
GI50 (SNB-75 CNS): 1630 nM
TGI (SNB-75 CNS): 4460 nM
GI50 (MDA-MB-231 breast): 383 nM
TGI (MDA-MB-231 breast): 1420 nM
GI50 (SR leukemia): 272 nM
TGI (SR leukemia): 1520 nM
GI50 (TK-10 renal): 201 nM
TGI (TK-10 renal): 462 nM
GI50 (SK-MEL-28 melanoma): 279 nM
TGI (SK-MEL-28 melanoma): 847 nM
GI50 (NCI-H23 lung): 865 nM
TGI (NCI-H23 lung): 3100 nM
GI50 (COLO 205 colon): 202 nM
TGI (COLO 205 colon): 462 nM
GI50 (SN12C renal): 1320 nM
TGI (SN12C renal): 3800 nM
GI50 (M14 melanoma): 252 nM
TGI (M14 melanoma): 716 nM
GI50 (RPMI-8226 leukemia): 252 nM
TGI (RPMI-8226 leukemia): 696 nM
GI50 (A498 renal): 1710 nM
TGI (A498 renal): 3190 nM
